{
  "source": "patent US20260285817A1",
  "about": "“CRYSTALLINE FORMS OF A 1H-1,2,3-TRIAZOLE-4-CARBOXYLIC ACID COMPOUND” (CANTERO THERAPEUTICS, INC., priority 2023, published 2026)",
  "key": {"[1]": {"experiment": "Critical water activity study, competitive slurry in THF/H2O at rt, XRPD", "procedure": "Critical water activity (aw) study was performed for mono-sodium salt Form A (monohydrate), Form E (hemihydrate) and Form D (anhydrate) to investigate the form relationship. It was conducted via competitive slurry in THF/H2O with a series of aw (0~1) at rt. Specifically, ~10 mg staring material was suspended in 0.4 mL THF/H2O (aw of 0, 0.2, 0.4, 0.6, 0.8 and 1.0) at rt. After equilibrium for 2 hrs, collect the filtrates to the HPLC vials containing Form A and Form D with equivalent mass ratio. After stirring magnetically at rt for 1~2 days, collect the solids for XRPD analysis."}, "[2]": {"experiment": "Dynamic vapor sorption (DVS) hygroscopicity of Form A", "type": "physicochemical", "method": "In some embodiments, the crystalline form described herein is further characterized by a dynamic vapor sorption (DVS). In some embodiments, the DVS is recorded using a sample weight of a few milligrams (e.g., about 20 mg) on an ADVENTURE series DVS at 25° C. under nitrogen. In some embodiments, the sample is subjected to the cycle as follows: 1) ambient relative humidity (RH) to 90% RH at a rate of 10% RH and from 90% RH to 95% RH in a rate of 5% RH; 2) 95% RH to 90% RH at a rate of 5% RH and 90% RH to 0% RH at a rate of 10% RH; and 3) 0% RH to 90% RH at a rate of 10% RH and 90% RH to 95% RH in a rate of 5% RH.\nDynamic Vapor Sorption (DVS): Dynamic vapor sorption was performed with an ADVENTURE series DVS at 25° C. under nitrogen blow. Approximately 20 milligrams of material was used. Samples were analyzed using method below: • 1. Ambient relative humidity to 95% RH at 10% RH (5% from 90% RH to 95% RH) • 2. 95% RH to 0% RH at 10% RH (5% RH from 95% RH to 90% RH) • 3. 0% RH to 95% RH at 10% RH (5% RH from 90% RH to 95% RH)\nTo understand the hygroscopicity of Form A, dynamic vapor sorption (DVS) was employed to measure the mass change as a function of relative humidity at 25° C. Form A was equilibrated at ambient relative humidity before analysis."}, "[3]": {"experiment": "Solubility in 20% EtOH in water and 20% DMAc in water at room temperature", "type": "physicochemical", "details": "organic solvent or mixture, 20~60 mins", "method": "(§1) High Performance Liquid Chromatography (HPLC): HPLC of Agilent 1260 with DAD detector was employed to detect the purity and solubility, with the methods shown in Table 1.\nSolubility in Various Solvents: Solubility of Form A was also measured in 20% EtOH in water and 20% DMAc in water at room temperature (rt). Specifically, about 3 mg Form A sample was added to 0.6 mL solvent."}, "[4]": {"experiment": "24-hr pH solubility and form stability in six pH buffers at 25° C.", "type": "physicochemical", "details": "for solubility at 24 h: aqueous buffer", "method": "as §1\nAfter shaking at 100 rpm at 25° C. for 24 hrs, the suspensions were centrifuged. The solids were analyzed by XRPD for crystal form, and the filtrates of supernatants were analyzed by HPLC for solubility and by pH meter for pH value."}, "[5]": {"experiment": "Solubility in water at various temperatures", "type": "physicochemical", "details": "for Final Form: XRPD", "method": "as §1\nSolubility in Water at various Temperature: Solubility test was conducted for Form A in water at various temperatures. Specifically, about 3~5 mg Form A sample was added to 1 mL water. After stirring at 750 rpm at desired temperatures (25/35/50/60/70° C.) for 1~2 hrs, solids were isolated for XRPD to check the crystal form and the supernatants were collected for a HPLC analysis to detect the solubility."}},
  "note": "Entries after “also recorded” stand apart in the source; their conditions may differ. Where two headings read alike, the source gives them in different places.",
  "data": [
    {"smiles": "O=C([O-])c1nn[nH]c1Oc1ccc(-c2ccc(C3CC(F)(F)C3)cc2)cc1.[Na+]", "values": [
      {"measurement": "relative form stability", "setting": "[1]; THF/H2O, aw of 0~0.8, rt", "result": "more stable than monohydrate Form A and anhydrate Form D"}
    ]},
    {"smiles": "O.O=C([O-])c1nn[nH]c1Oc1ccc(-c2ccc(C3CC(F)(F)C3)cc2)cc1.[Na+]", "note": "[Form A, sodium 5-((4′-(3,3-difluorocyclobutyl)-[1,1′-biphenyl]-4-yl)oxy)-1H-1,2,3-triazole-4-carboxylate monohydrate]", "values": [
      {"measurement": "water uptake", "setting": "[2]; 25° C./80% RH compared to starting point (60% RH)", "result": "negligible water uptake"},
      {"measurement": "weight gain, DVS cycle", "setting": "[2]; 60% RH to 80% RH, 25° C.", "result": "less than 0.03%"},
      {"measurement": "weight loss, first dynamic vapor desorption cycle", "setting": "[2]; 80% RH to 60% RH, 25° C.", "result": "less than 0.03%"},
      {"measurement": "hygroscopicity", "setting": "[2]; DVS, 25° C., monohydrate", "result": "non-hygroscopic; also recorded: non-hygroscopicity"},
      {"measurement": "form stability under humidity", "setting": "[2]; broad humidity range, DVS 25° C.", "result": "good form stability"},
      {"measurement": "water lost", "setting": "[2]; relative humidity below 10% RH, 25° C.", "result": "~ 0.6%"},
      {"measurement": "solubility", "setting": "[3]; 20% DMAc in water", "result": 3300, "unit": "µg/mL"},
      {"measurement": "solubility", "setting": "[3]; 20% EtOH in water", "result": 1900, "unit": "µg/mL"},
      {"measurement": "relative form stability", "setting": "[1]; water, aw of 1.0, rt", "result": "more stable than Form D"},
      {"measurement": "solubility at 24 h", "setting": "[4]; pH 7.0 buffer, 25° C., read-out: Solubility", "result": 55, "unit": "µg/mL"},
      {"measurement": "solubility at 24 h", "setting": "[4]; pH 8.0 buffer, 25° C., read-out: Solubility", "result": 404, "unit": "µg/mL"},
      {"measurement": "solubility at 24 h", "setting": "[4]; pH 10.0 buffer, 25° C., read-out: Solubility", "result": 4830, "unit": "µg/mL"},
      {"measurement": "solubility", "setting": "[4]; pH 2.0/4.0/6.0, 25° C.", "result": "limited solubility"},
      {"measurement": "Final pH (measured)", "setting": "[4]; pH 2.0 buffer, 25° C.", "result": "pH 2.5"},
      {"measurement": "solubility", "setting": "[4]; pH 2.0 buffer, 25° C.", "result": "<LOD"},
      {"measurement": "Form Change", "setting": "[4]; pH 2.0 buffer, 25° C., XRPD of solids", "result": "Yes"},
      {"measurement": "Form Change", "setting": "[4]; pH 2.0~7.0, 25° C.", "result": "new diffractive peaks"},
      {"measurement": "Final pH (measured)", "setting": "[4]; pH 4.0 buffer, 25° C.", "result": "pH 4.4"},
      {"measurement": "solubility", "setting": "[4]; pH 4.0 buffer, 25° C.", "result": "<LOD"},
      {"measurement": "Form Change", "setting": "[4]; pH 4.0 buffer, 25° C., XRPD of solids", "result": "Yes"},
      {"measurement": "Final pH (measured)", "setting": "[4]; pH 6.0 buffer, 25° C.", "result": "pH 6.2"},
      {"measurement": "solubility", "setting": "[4]; pH 6.0 buffer, 25° C.", "result": "<LOD"},
      {"measurement": "Form Change", "setting": "[4]; pH 6.0 buffer, 25° C., XRPD of solids", "result": "Yes"},
      {"measurement": "Final pH (measured)", "setting": "[4]; pH 7.0 buffer, 25° C.", "result": "pH 7.1"},
      {"measurement": "Form Change", "setting": "[4]; pH 7.0 buffer, 25° C., XRPD of solids", "result": "Yes"},
      {"measurement": "Form Change", "setting": "[4]; pH 8.0/10.0, 25° C.", "result": "no form change"},
      {"measurement": "Final pH (measured)", "setting": "[4]; pH 8.0 buffer, 25° C.", "result": "pH 7.4"},
      {"measurement": "Form Change", "setting": "[4]; pH 8.0 buffer, 25° C., XRPD of solids", "result": "No"},
      {"measurement": "Final pH (measured)", "setting": "[4]; pH 10.0 buffer, 25° C.", "result": "pH 8.4"},
      {"measurement": "Form Change", "setting": "[4]; pH 10.0 buffer, 25° C., XRPD of solids", "result": "No"},
      {"measurement": "solubility at 24 h", "setting": "[4]; ph buffer, pH 2.0~10.0, 25° C., read-out: solubility as a function of pH", "result": "< 4800", "unit": "µg/mL"},
      {"measurement": "solubility", "setting": "[5]; 25~70° C., read-out: solubility as a function of temperature", "result": "1100 to 2300", "unit": "µg/mL"},
      {"measurement": "solubility", "setting": "[5]; 25° C., 1~2 hrs, read-out: Solubility", "result": 1100, "unit": "µg/mL"},
      {"measurement": "Final Form", "setting": "[5]; 25° C.", "result": "Forms A + C"},
      {"measurement": "solubility", "setting": "[5]; 35° C., 1~2 hrs, read-out: Solubility", "result": 1300, "unit": "µg/mL"},
      {"measurement": "solubility", "setting": "[5]; 50° C., 1~2 hrs, read-out: Solubility", "result": 1940, "unit": "µg/mL"},
      {"measurement": "solubility", "setting": "[5]; 60° C., 1~2 hrs, read-out: Solubility", "result": 1860, "unit": "µg/mL"},
      {"measurement": "Final Form", "setting": "[5]; 60° C.", "result": "Forms A + C"},
      {"measurement": "solubility", "setting": "[5]; 70° C., 1~2 hrs, read-out: Solubility", "result": 2320, "unit": "µg/mL"},
      {"measurement": "form transformation in water", "setting": "[5]; various temperatures", "result": "partial conversion to Form C"}
    ]}
  ]
}
